Data from the kinase profiling compilation of Christmann-Franck et al. (2016).

Experiments:
Test in all cases: radiometric filter-binding kinase assay, Kinase HotSpot
ACVR1B (human) = ACVR1B (human) (UniProt P36896); conditions: compound 0.5 µM; ATP 10 µM
AURKB (human) = AURKB (human) (UniProt Q96GD4); conditions: compound 0.5 µM; ATP 10 µM
AXL (human) = AXL (human) (UniProt P30530); conditions: compound 0.5 µM; ATP 10 µM
CAMK1D (human) = CAMK1D (human) (UniProt Q8IU85); conditions: compound 0.5 µM; ATP 10 µM
CDK5 CDK5R1 p35 (human) = CDK5 CDK5R1 p35 (human) (UniProt Q00535+Q15078); conditions: compound 0.5 µM
CDK9 CCNK (human) = CDK9 CCNK (human) (UniProt O75909+P50750); conditions: compound 0.5 µM
CDK9 CCNT1 (human) = CDK9 CCNT1 (human) (UniProt P50750+O60563); conditions: compound 0.5 µM
CLK1 (human) = CLK1 (human) (UniProt P49759); conditions: compound 0.5 µM; ATP 10 µM
CSNK1G1 (human) = CSNK1G1 (human) (UniProt Q9HCP0); conditions: compound 0.5 µM; ATP 10 µM
DAPK1 (human) = DAPK1 (human) (UniProt P53355); conditions: compound 0.5 µM; ATP 10 µM
FLT3 (human) = FLT3 (human) (UniProt P36888); conditions: compound 0.5 µM; ATP 10 µM
FYN (human) = FYN (human) (UniProt P06241); conditions: compound 0.5 µM; ATP 10 µM
HCK (human) = HCK (human) (UniProt P08631); conditions: compound 0.5 µM; ATP 10 µM
Chain of HCK (human) (P08631 whole entry, looked up): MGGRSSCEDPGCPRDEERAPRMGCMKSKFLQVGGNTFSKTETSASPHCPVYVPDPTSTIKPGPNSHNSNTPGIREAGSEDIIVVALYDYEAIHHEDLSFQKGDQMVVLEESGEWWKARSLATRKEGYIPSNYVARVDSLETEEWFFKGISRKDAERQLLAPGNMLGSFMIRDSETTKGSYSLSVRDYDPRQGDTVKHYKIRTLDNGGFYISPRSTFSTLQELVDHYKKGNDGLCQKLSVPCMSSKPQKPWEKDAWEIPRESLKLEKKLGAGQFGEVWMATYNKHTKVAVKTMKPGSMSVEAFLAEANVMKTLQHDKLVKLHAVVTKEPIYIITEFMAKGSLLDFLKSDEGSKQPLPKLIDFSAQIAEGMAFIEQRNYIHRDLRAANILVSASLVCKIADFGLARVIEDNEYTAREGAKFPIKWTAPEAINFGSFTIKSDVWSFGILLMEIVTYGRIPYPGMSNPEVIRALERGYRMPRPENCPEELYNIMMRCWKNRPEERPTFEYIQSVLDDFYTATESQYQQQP

IGF1R (human) = IGF1R (human) (UniProt P08069); conditions: compound 0.5 µM
Chain of IGF1R (human) (P08069 whole entry, looked up): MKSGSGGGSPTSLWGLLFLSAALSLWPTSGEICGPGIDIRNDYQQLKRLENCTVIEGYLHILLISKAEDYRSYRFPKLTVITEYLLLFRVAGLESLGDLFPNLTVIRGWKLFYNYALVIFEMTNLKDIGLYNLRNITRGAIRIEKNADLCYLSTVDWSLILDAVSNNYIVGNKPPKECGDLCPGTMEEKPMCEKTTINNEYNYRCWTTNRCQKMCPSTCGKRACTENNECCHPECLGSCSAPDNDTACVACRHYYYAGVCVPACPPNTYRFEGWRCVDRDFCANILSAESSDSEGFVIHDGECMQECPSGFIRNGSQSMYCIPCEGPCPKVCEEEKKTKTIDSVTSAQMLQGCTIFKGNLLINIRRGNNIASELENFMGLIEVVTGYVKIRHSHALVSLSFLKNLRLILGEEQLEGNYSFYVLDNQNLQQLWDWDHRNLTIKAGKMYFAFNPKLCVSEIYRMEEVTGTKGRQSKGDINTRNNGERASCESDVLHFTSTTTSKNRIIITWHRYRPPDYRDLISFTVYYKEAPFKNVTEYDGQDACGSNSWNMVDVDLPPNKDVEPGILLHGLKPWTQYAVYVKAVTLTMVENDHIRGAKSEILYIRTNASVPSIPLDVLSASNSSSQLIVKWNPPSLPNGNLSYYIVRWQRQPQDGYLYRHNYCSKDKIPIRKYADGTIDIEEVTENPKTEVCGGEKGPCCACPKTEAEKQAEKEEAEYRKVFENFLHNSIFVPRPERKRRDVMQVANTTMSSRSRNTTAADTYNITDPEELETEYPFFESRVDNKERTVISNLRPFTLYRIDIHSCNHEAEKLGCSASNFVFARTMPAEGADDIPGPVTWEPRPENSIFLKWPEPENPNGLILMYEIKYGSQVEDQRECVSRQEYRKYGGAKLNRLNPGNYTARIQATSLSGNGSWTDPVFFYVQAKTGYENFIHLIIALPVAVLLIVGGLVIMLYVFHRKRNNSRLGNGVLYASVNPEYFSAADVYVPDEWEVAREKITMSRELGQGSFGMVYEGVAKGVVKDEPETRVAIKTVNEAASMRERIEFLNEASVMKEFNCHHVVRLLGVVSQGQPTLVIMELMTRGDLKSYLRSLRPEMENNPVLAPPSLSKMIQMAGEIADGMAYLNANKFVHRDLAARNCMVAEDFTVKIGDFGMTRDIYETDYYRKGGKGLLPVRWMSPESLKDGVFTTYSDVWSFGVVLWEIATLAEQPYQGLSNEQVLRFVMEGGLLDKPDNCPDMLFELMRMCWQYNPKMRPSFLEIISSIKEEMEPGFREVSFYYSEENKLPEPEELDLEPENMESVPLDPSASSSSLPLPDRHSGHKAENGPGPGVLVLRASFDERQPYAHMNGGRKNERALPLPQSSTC

IKBKE (human) = IKBKE (human) (UniProt Q14164); conditions: compound 0.5 µM; ATP 10 µM
INSR (human) = INSR (human) (UniProt P06213); conditions: compound 0.5 µM; ATP 10 µM
JAK3 JH1 JH2 (human) = JAK3 JH1 JH2 (human) (UniProt P52333); conditions: compound 0.5 µM; ATP 10 µM
MAP3K5 (human) = MAP3K5 (human) (UniProt Q99683); conditions: compound 0.5 µM; ATP 10 µM
MAP3K8 (human) = MAP3K8 (human) (UniProt P41279); conditions: compound 0.5 µM; ATP 10 µM
MAP3K9 (human) = MAP3K9 (human) (UniProt P80192); conditions: compound 0.5 µM; ATP 10 µM
MAP4K5 (human) = MAP4K5 (human) (UniProt Q9Y4K4); conditions: compound 0.5 µM; ATP 10 µM
MAPKAPK2 (human) = MAPKAPK2 (human) (UniProt P49137); conditions: compound 0.5 µM; ATP 10 µM
Chain of MAPKAPK2 (human) (P49137 whole entry, looked up): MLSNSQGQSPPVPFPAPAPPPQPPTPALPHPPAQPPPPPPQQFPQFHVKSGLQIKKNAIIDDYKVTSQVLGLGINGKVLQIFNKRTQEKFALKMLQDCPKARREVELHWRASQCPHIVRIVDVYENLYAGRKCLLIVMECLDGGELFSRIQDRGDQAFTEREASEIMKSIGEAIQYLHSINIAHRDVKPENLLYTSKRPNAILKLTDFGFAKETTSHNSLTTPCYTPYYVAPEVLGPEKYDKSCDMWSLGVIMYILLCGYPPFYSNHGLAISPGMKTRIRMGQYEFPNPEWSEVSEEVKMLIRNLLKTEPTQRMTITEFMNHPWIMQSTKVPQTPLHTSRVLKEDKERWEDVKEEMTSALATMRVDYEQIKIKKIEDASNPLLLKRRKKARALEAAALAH

MARK3 (human) = MARK3 (human) (UniProt P27448); conditions: compound 0.5 µM; ATP 10 µM
NEK7 (human) = NEK7 (human) (UniProt Q8TDX7); conditions: compound 0.5 µM; ATP 10 µM
Chain of NEK7 (human) (Q8TDX7 whole entry, looked up): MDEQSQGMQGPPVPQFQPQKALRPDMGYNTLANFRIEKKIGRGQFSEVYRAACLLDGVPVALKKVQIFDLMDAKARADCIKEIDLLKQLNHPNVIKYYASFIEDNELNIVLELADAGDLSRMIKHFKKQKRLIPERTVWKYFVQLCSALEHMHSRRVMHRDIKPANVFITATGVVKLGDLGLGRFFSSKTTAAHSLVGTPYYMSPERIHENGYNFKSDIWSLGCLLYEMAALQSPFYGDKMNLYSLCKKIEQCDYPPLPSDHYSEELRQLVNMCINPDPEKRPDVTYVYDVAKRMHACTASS

PAK1 (human) = PAK1 (human) (UniProt Q13153); conditions: compound 0.5 µM; ATP 10 µM
PAK3 (human) = PAK3 (human) (UniProt O75914); conditions: compound 0.5 µM; ATP 10 µM
PBK (human) = PBK (human) (UniProt Q96KB5); conditions: compound 0.5 µM; ATP 10 µM
PLK2 (human) = PLK2 (human) (UniProt Q9NYY3); conditions: compound 0.5 µM; ATP 10 µM
PRKCE (human) = PRKCE (human) (UniProt Q02156); conditions: compound 0.5 µM; ATP 10 µM
Chain of PRKCE (human) (Q02156 whole entry, looked up): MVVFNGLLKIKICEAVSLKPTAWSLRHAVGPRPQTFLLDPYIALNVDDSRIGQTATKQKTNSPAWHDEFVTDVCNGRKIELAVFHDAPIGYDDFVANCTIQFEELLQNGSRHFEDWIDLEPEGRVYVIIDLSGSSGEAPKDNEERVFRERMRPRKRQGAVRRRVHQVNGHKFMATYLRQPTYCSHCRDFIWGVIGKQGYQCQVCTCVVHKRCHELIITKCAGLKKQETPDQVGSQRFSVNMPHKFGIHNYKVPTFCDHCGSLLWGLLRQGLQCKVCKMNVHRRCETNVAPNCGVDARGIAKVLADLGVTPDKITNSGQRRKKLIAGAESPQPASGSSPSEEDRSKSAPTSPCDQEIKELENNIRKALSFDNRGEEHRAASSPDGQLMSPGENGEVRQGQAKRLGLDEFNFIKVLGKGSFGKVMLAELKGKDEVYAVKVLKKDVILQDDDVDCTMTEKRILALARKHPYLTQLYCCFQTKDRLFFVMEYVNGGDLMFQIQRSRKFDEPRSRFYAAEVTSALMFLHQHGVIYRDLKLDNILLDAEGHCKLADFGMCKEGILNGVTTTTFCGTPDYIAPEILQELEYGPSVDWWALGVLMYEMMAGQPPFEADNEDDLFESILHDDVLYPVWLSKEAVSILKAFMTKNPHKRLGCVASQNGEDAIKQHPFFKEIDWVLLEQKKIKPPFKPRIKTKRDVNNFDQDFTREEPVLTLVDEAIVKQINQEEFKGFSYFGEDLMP

PRKCG (human) = PRKCG (human) (UniProt P05129); conditions: compound 0.5 µM; ATP 10 µM
PRKG2 (human) = PRKG2 (human) (UniProt Q13237); conditions: compound 0.5 µM; ATP 10 µM
RPS6KA2 KD1 KD2 (human) = RPS6KA2 KD1 KD2 (human) (UniProt Q15349); conditions: compound 0.5 µM; ATP 10 µM
SRPK2 (human) = SRPK2 (human) (UniProt P78362); conditions: compound 0.5 µM; ATP 10 µM
SRPK3 (human) = SRPK3 (human) (UniProt Q9UPE1); conditions: compound 0.5 µM; ATP 10 µM
STK11 (human) = STK11 (human) (UniProt Q15831); conditions: compound 0.5 µM; ATP 10 µM
STK33 (human) = STK33 (human) (UniProt Q9BYT3); conditions: compound 0.5 µM; ATP 10 µM
TEK (human) = TEK (human) (UniProt Q02763); conditions: compound 0.5 µM; ATP 10 µM
TGFBR1 (human) = TGFBR1 (human) (UniProt P36897); conditions: compound 0.5 µM; ATP 10 µM
TNK2 (human) = TNK2 (human) (UniProt Q07912); conditions: compound 0.5 µM; ATP 10 µM
Chain of TNK2 (human) (Q07912 whole entry, looked up): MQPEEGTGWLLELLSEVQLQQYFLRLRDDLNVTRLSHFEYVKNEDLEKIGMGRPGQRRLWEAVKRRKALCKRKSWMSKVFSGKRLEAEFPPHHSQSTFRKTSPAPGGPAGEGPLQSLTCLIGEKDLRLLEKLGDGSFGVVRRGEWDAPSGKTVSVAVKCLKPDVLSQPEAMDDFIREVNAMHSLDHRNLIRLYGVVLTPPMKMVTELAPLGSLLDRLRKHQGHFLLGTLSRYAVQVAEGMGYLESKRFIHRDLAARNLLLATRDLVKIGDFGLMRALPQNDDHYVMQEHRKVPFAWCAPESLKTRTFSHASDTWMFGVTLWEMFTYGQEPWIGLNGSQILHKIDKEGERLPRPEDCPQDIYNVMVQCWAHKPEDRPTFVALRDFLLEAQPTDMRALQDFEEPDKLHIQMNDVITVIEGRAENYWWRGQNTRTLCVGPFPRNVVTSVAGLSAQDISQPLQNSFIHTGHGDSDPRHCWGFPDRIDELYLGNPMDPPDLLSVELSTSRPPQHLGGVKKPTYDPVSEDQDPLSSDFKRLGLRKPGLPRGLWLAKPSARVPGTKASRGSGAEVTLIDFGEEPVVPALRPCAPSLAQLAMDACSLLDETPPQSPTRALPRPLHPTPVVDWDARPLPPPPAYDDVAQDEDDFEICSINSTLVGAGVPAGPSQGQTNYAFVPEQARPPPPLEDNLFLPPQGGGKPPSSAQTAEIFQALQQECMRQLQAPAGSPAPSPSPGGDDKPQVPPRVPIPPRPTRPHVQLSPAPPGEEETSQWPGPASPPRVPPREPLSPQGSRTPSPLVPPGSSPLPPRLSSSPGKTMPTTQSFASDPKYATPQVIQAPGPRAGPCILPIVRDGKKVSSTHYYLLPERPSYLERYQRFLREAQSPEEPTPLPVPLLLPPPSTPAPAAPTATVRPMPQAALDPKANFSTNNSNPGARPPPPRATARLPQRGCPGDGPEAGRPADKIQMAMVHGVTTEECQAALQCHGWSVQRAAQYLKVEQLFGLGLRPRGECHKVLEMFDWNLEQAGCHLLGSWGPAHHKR

TSSK1B (human) = TSSK1B (human) (UniProt Q9BXA7); conditions: compound 0.5 µM; ATP 10 µM
TXK (human) = TXK (human) (UniProt P42681); conditions: compound 0.5 µM; ATP 10 µM
ULK1 (human) = ULK1 (human) (UniProt O75385); conditions: compound 0.5 µM; ATP 10 µM

With O=c1[nH]c2ccccc2n1C1CCN(Cc2ccc(-c3nc4cc5[nH]cnc5cc4nc3-c3ccccc3)cc2)CC1 the residual activity (ACVR1B (human)) was 111%, the residual activity (AURKB (human)) was 98.7% and the residual activity (AXL (human)) was 105%. It also gave a residual activity (CAMK1D (human)) of 107%, a residual activity (CDK5 CDK5R1 p35 (human)) of 91.9% and a residual activity (CDK9 CCNK (human)) of 108%. The residual activity (CDK9 CCNT1 (human)) was 93.2%, the residual activity (CLK1 (human)) was 109% and the residual activity (CSNK1G1 (human)) was 99.3%. The residual activity (DAPK1 (human)) was 82.9%, the residual activity (FLT3 (human)) was 94.6% and the residual activity (FYN (human)) was 101%. It also gave a residual activity (HCK (human)) of 99.6%, a residual activity (IGF1R (human)) of 91.2% and a residual activity (IKBKE (human)) of 91.9%. The residual activity (INSR (human)) was 102%, the residual activity (JAK3 JH1 JH2 (human)) was 100% and the residual activity (MAP3K5 (human)) was 93.8%. The residual activity (MAP3K8 (human)) was 95.2%, the residual activity (MAP3K9 (human)) was 93.9% and the residual activity (MAP4K5 (human)) was 91.9%. The residual activity (MAPKAPK2 (human)) was 98.7%, the residual activity (MARK3 (human)) was 103% and the residual activity (NEK7 (human)) was 99.6%. It also gave a residual activity (PAK1 (human)) of 90.6%, a residual activity (PAK3 (human)) of 104% and a residual activity (PBK (human)) of 103%. For the same compound, the residual activity (PLK2 (human)) was 95.5%, the residual activity (PRKCE (human)) was 109% and the residual activity (PRKCG (human)) was 92.2%. The residual activity (PRKG2 (human)) was 96.8%, the residual activity (RPS6KA2 KD1 KD2 (human)) was 101% and the residual activity (SRPK2 (human)) was 116%. It also gave a residual activity (SRPK3 (human)) of 107%, a residual activity (STK11 (human)) of 95.6% and a residual activity (STK33 (human)) of 89.6%. It also gave a residual activity (TEK (human)) of 102%, a residual activity (TGFBR1 (human)) of 102% and a residual activity (TNK2 (human)) of 92.3%. For the same compound, the residual activity (TSSK1B (human)) was 96.5%, the residual activity (TXK (human)) was 104% and the residual activity (ULK1 (human)) was 96.7%.

For N#C/C(=C1/Nc2ccccc2S1)c1ccnc(NCCc2cccnc2)n1, the residual activity (ACVR1B (human)) was 97.1%, the residual activity (AURKB (human)) was 94% and the residual activity (AXL (human)) was 106%. It also gave a residual activity (CAMK1D (human)) of 108%, a residual activity (CDK5 CDK5R1 p35 (human); ATP 10 µM) of 97.2% and a residual activity (CDK9 CCNK (human); ATP 10 µM) of 26.6%. For the same compound, the residual activity (CDK9 CCNT1 (human); ATP 10 µM) was 23.3%, the residual activity (CLK1 (human)) was 75.4% and the residual activity (CSNK1G1 (human)) was 88.8%. For the same compound, the residual activity (DAPK1 (human)) was 99.3%, the residual activity (FLT3 (human)) was 58.2% and the residual activity (FYN (human)) was 93.1%. The residual activity (HCK (human)) was 92.2%, the residual activity (IGF1R (human); ATP 10 µM) was 100% and the residual activity (IKBKE (human)) was 90.3%. It also gave a residual activity (INSR (human)) of 100%, a residual activity (JAK3 JH1 JH2 (human)) of 106% and a residual activity (MAP3K5 (human)) of 102%. For the same compound, the residual activity (MAP3K8 (human)) was 96%, the residual activity (MAP3K9 (human)) was 100% and the residual activity (MAP4K5 (human)) was 87.5%. It also gave a residual activity (MAPKAPK2 (human)) of 97.8%, a residual activity (MARK3 (human)) of 94.9% and a residual activity (NEK7 (human)) of 88.2%. For the same compound, the residual activity (PAK1 (human)) was 96.5%, the residual activity (PAK3 (human)) was 102% and the residual activity (PBK (human)) was 99.7%. It also gave a residual activity (PLK2 (human)) of 95.8%, a residual activity (PRKCE (human)) of 92.1% and a residual activity (PRKCG (human)) of 92.2%. The residual activity (PRKG2 (human)) was 98.1%, the residual activity (RPS6KA2 KD1 KD2 (human)) was 89.6% and the residual activity (SRPK2 (human)) was 97.1%. It also gave a residual activity (SRPK3 (human)) of 89.5%, a residual activity (STK11 (human)) of 79.4% and a residual activity (STK33 (human)) of 55.4%. The residual activity (TEK (human)) was 97.5%, the residual activity (TGFBR1 (human)) was 97.8% and the residual activity (TNK2 (human)) was 42.8%. For the same compound, the residual activity (TSSK1B (human)) was 99%, the residual activity (TXK (human)) was 49.3% and the residual activity (ULK1 (human)) was 98.5%.

With CCOc1cc2ncnc(Nc3cccc(Br)c3)c2cc1OCC the residual activity (ACVR1B (human)) was 101%, the residual activity (AURKB (human)) was 91.9% and the residual activity (AXL (human)) was 89.9%. For the same compound, the residual activity (CAMK1D (human)) was 102%, the residual activity (CDK5 CDK5R1 p35 (human); ATP 10 µM) was 99.2% and the residual activity (CDK9 CCNK (human); ATP 10 µM) was 102%. The residual activity (CDK9 CCNT1 (human); ATP 10 µM) was 98.5%, the residual activity (CLK1 (human)) was 97.2% and the residual activity (CSNK1G1 (human)) was 107%. For the same compound, the residual activity (DAPK1 (human)) was 77.4%, the residual activity (FLT3 (human)) was 29% and the residual activity (FYN (human)) was 78.9%. The residual activity (HCK (human)) was 59.4%, the residual activity (IGF1R (human); ATP 10 µM) was 101% and the residual activity (IKBKE (human)) was 98.7%. It also gave a residual activity (INSR (human)) of 98.7%, a residual activity (JAK3 JH1 JH2 (human)) of 102% and a residual activity (MAP3K5 (human)) of 116%. For the same compound, the residual activity (MAP3K8 (human)) was 106%, the residual activity (MAP3K9 (human)) was 96.1% and the residual activity (MAP4K5 (human)) was 47.7%. The residual activity (MAPKAPK2 (human)) was 101%, the residual activity (MARK3 (human)) was 98.8% and the residual activity (NEK7 (human)) was 98.6%. For the same compound, the residual activity (PAK1 (human)) was 95.2%, the residual activity (PAK3 (human)) was 97.6% and the residual activity (PBK (human)) was 102%. It also gave a residual activity (PLK2 (human)) of 99.8%, a residual activity (PRKCE (human)) of 94.5% and a residual activity (PRKCG (human)) of 83%. For the same compound, the residual activity (PRKG2 (human)) was 83.9%, the residual activity (RPS6KA2 KD1 KD2 (human)) was 74.5% and the residual activity (SRPK2 (human)) was 95.6%. It also gave a residual activity (SRPK3 (human)) of 93.5%, a residual activity (STK11 (human)) of 88% and a residual activity (STK33 (human)) of 93.9%. The residual activity (TEK (human)) was 96.4%, the residual activity (TGFBR1 (human)) was 96.9% and the residual activity (TNK2 (human)) was 58.8%. It also gave a residual activity (TSSK1B (human)) of 92.9%, a residual activity (TXK (human)) of 80.2% and a residual activity (ULK1 (human)) of 98.8%.
